Laboratory results: paper PMC7177849, “Gut Microbial Catabolites of Tryptophan Are Ligands and Agonists of the Aryl Hydrocarbon Receptor: A Detailed Characterization” (International Journal of Molecular Sciences, 2020)
Like-named read-outs stand apart in the source and are kept apart here.

Columns and labels:
AhR [1] = system: AhR; parameters: method as in PMID 27158904; settings: IAA approx. 5000 µM; cited from earlier work
CYP1A1 mRNA [2] = experiment: Summary of CYP1A1 gene expression in human hepatic and intestinal cells; type: cell-based; settings: for induction of CYP1A1 mRNA: 200 µM, LS180 cells, HT-29 cells, and primary human hepatocytes; for Gene Expression: Table 1 summary class, CYP1A1
Method: (§1) Figure 4 Effects of MICT on the induction of CYP1A1 mRNA in human hepatic and intestinal cells. Cultured cells were incubated for 24 h with the vehicle (DMSO; 0.1% v/v) and tested MICT in the presence or absence of TCDD (10 nM). RT-PCR determined the level of CYP1A1 mRNA, and the data were normalized per GAPDH mRNA level. […] (A,B) Experiments in three consecutive passages of human colon adenocarcinoma cell line LS180 in the absence (A) and the presence (B) of 10 nM TCDD. The bar graphs show the percentage of maximal induction attained by TCDD and are expressed as the mean ± SD. (C) Experiments in three consecutive passages of wild-type (AhR^+/^+) and AhR-knockout (AhR^−/^−) HT-29 cells. […] (D) Primary human hepatocytes from three different donors (LH79, Hep2201020, and Hep2201021).
(§2) Total RNA was isolated using TRI Reagent® (Sigma Aldrich, Prague, Czech Republic). cDNA was synthesized using M-MuLV reverse transcriptase (New England Biolabs, Ipswich, MA, USA). The reverse transcription was performed at 42 °C for 60 min using Random Primers 6 (New England Biolabs, Ipswich, MA, USA) and diluted in a 1:4 ratio by PCR-grade water. The quantitative reverse transcriptase-polymerase chain reaction (qRT-PCR) was performed on the Lightcycler 480 II using the LightCycler ® 480 Probes Master (Roche Diagnostic Corporation, Prague, Czech Republic). The levels of CYP1A1 and GAPDH mRNAs were determined using the Universal Probe Library probes (UPL; Roche Diagnostic Corporation, Prague, Czech Republic) in combination with specific primers, using a protocol described elsewhere. All measurements were performed in triplicates, and the gene expression was normalized to glyceraldehyde-3-phosphate dehydrogenase (GAPDH) as a house-keeping gene. The data were processed using the delta-delta Ct method and expressed as a fold induction over the negative control (DMSO) or as a percentage of the positive control (maximal induction by TCDD).

guinea pig AhR = system: guinea pig AhR; parameters: method as in PMID 9708986; settings: cited from earlier work
mouse AhR = system: mouse AhR; parameters: method as in PMID 9708986; settings: cited from earlier work
CYP1A1 mRNA [3] = experiment: CYP1A1 mRNA (qRT-PCR) in intestinal LS180 cells; type: cell-based, human; settings: LS180 cells co-incubated with TCDD (10 nM), 24 h
Method: as §1, §2

CYP1A1 mRNA [4] = system: CYP1A1 mRNA; parameters: method as in PMID 24563545; settings: 100 µM IAA, cited from earlier work
AhR [5] = system: AhR; parameters: method as in PMID 26235394; settings: 10 µM IPA, HepG2 cells; cited from earlier work
AhR [6] = molecular target: T1, AhR (Homo sapiens, UniProt P35869); experiment: Reporter gene assay in AZ-AHR cells, antagonist analyses against TCDD, BaP, FICZ
T1 sequence (P35869 11-848): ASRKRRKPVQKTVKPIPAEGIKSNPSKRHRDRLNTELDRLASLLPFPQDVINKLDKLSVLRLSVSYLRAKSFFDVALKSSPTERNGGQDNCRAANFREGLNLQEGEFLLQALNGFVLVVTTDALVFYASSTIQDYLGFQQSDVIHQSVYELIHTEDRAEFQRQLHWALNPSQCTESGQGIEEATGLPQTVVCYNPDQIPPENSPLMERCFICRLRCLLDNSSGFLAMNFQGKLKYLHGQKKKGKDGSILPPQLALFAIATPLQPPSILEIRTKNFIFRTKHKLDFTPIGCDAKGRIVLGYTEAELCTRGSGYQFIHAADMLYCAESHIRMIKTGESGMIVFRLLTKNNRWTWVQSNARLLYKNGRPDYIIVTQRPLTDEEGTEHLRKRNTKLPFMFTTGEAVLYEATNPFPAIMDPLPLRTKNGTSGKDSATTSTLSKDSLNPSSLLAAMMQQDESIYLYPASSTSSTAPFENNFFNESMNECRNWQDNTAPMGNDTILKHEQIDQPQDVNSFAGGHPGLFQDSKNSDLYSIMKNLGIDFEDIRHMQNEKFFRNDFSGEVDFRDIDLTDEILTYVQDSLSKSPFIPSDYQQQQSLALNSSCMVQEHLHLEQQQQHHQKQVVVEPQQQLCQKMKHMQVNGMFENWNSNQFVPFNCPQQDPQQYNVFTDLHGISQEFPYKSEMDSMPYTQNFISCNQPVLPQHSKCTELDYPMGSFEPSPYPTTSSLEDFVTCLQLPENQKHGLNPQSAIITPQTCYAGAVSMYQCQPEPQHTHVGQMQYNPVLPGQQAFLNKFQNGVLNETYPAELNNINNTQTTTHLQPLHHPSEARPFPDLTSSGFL
Method: (§3) In the first series of experiments, we evaluated the agonistic and antagonistic effects of MICT on the AhR activation. […] The antagonistic effects of MICT were evaluated against typical full agonists of the AhR, comprising TCDD, BaP, and FICZ, which were applied at fixed concentrations corresponding to their EC80.
(§4) AZ-AHR cells were incubated for 24 h with vehicle (DMSO; 0.1% v/v) and increasing concentrations of MICT, in the absence (agonist analyses) or the presence (antagonist analyses) of TCDD (13.5 nM), BaP (15.8 µM) and FICZ (22.6 µM). Following the treatments, we lysed cells, and luciferase activity was measured. Experiments were performed at least in four consecutive cell passages. Incubations were performed in quadruplicates (technical replicates). In agonist analyses, the data from a representative experiment, expressed as a fold induction of luciferase activity over control cells, are shown. In antagonist analyses, the data are a percentage of maximal induction, and they are the mean ± SD.
(§5) AZ-AHR cells were incubated for 24 h with vehicle (DMSO; 0.1% v/v) and increasing concentrations of tested MICT in the presence or absence of TCDD (13.5 nM), FICZ (22.6 µM), or BaP (15.8 µM). Then, cells were lysed, and luciferase activity was measured using the Tecan Infinite M200 plate luminometer (Schoeller Instruments, Czech Republic). The experiments were performed in at least four consecutive cell passages, and the treatments were in quadruplicates (technical replicates). The values of half-maximal effective concentration (EC50) for each MICT, and half-maximal inhibitory concentration (IC50—where appropriate) were calculated.

AhR [7] = molecular target: T1, AhR; experiment: Reporter gene assay in AZ-AHR cells, agonist analyses (luciferase)
Method: as §3
as §4, with “Following” for “AZ-AHR cells were incubated for 24 h with vehicle (DMSO; 0.1% v/v) and increasing concentrations of MICT, in the absence (agonist analyses) or the presence (antagonist analyses) of TCDD (13.5 nM), BaP (15.8 µM) and FICZ (22.6 µM). Following”
as §5, with “Then,” for “AZ-AHR cells were incubated for 24 h with vehicle (DMSO; 0.1% v/v) and increasing concentrations of tested MICT in the presence or absence of TCDD (13.5 nM), FICZ (22.6 µM), or BaP (15.8 µM). Then,”
Supplementary Figure 2. Tryptophan effects in culture medium on AhR activity. (A) Time-course of Trp
levels in culture media from hepatic (AZ-AHR), instestinal (LS174T) and skin (HaCaT) cells. Determined by
HPLC. (B) Induction of AhR-dependent luciferase activity in AZ-AHR cells incubated for 24 h with TCDD,
Indole and Trp in Trp/serum-free culture medium. (C) Induction of AhR-dependent luciferase activity in
AZ-AHR cells incubated for 24 h with TCDD and Indole in standard (+Trp/+FBS), serum-free (+Trp/-FBS),
Trp-free (-Trp/+FBS) and Trp/serum-free (-Trp/-FBS) culture medium. […]

murine AhR = molecular target: T2, murine AhR (Mus musculus, UniProt P30561); experiment: Competitive radio-ligand ([3H]-TCDD) AhR binding assay, cytosols from Hepa1c1c7 cells; settings: data not shown
T2 sequence (P30561 10-805): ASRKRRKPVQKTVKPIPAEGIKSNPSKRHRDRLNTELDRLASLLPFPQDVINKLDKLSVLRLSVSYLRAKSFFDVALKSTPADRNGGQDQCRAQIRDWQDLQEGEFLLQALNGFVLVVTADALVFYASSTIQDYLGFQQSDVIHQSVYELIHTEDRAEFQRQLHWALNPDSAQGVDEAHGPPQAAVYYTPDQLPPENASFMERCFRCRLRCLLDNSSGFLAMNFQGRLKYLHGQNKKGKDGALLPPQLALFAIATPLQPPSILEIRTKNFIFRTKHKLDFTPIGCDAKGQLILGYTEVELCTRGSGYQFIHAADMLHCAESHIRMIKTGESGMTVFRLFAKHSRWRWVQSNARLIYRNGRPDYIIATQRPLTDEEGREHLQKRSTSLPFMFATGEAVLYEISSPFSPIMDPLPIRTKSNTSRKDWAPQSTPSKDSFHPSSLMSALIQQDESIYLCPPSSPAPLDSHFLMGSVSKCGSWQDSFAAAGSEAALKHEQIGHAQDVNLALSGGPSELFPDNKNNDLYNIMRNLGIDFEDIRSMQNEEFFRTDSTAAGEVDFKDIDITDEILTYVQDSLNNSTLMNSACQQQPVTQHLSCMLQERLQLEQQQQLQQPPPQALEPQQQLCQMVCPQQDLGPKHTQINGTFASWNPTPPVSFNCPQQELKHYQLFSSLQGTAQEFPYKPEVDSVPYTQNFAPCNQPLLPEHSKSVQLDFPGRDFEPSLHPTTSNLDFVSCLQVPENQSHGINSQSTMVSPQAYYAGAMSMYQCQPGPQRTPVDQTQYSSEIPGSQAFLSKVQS
Method: Figure 2 Competitive radio-ligand binding assay. Cytosols from Hepa1c1c7 cells were incubated with vehicle (negative control; 0.1% V/V), FICZ (positive control; 0.01 nM – 10 nM), TCDF (non-specific binding; 200 nM) and increasing doses of MICT in the presence of 2 nM [^3H]-TCDD. The specific binding of [^3H]-TCDD was determined as a difference between total and non-specific (200 nM; TCDF) reactions (value for vehicle DMSO; 0.1% V/V = corresponds to specific binding of [^3H]-TCDD = 100%). At least two independent experiments were performed and the incubations were done in triplicates in each experiment (technical replicates).
Ligand binding assay was performed using cytosolic protein extracts from murine Hepa1c1c7 cells as described. Briefly, aliquots of protein (2 mg/mL) were incubated at the room temperature for two (2) h with 2 nM [^3H]-TCDD in the presence of DMSO (vehicle control), FICZ (positive control), 200 nM TCDF (non-specific binding) or increasing concentration of MICT. After the incubation, the hydroxyapatite slurry was added to the samples and the suspension was incubated on ice and washed three times with HEGT buffer. The hydroxyapatite pellet was re-suspended in scintillation cocktail, and radioactivity was determined in a liquid scintillation counter. The specific binding of [^3H]-TCDD was determined by subtracting the radioactivity of non-specific reaction (TCDF) from total radioactivity. The values of IC50 were calculated where appropriate.

induction of CYP1A1 mRNA (CYP1A1 mRNA [2])	Gene Expression (CYP1A1 mRNA [2])	antagonistic effects on CYP1A1 mRNA (CYP1A1 mRNA [3])	antagonistic effect against full agonists (AhR [6]; AZ-AHR cells, 24 h, TCDD, BaP and FICZ at EC80)	Antagonism (IC50) (AhR [6]; Table 1 summary class)	activation of AhR (AhR [7]; AZ-AHR cells, 200 µM)	fold induction of luciferase activity (efficacy) (AhR [7]; AZ-AHR cells, 24 h, up to 200 µM (IAC 100 µM, IND 10 mM), plateau not reached)	EC50 (AhR [7]; EC50, AZ-AHR cells, 24 h, agonist analyses)	Efficacy (EMAX) (AhR [7]; Table 1 summary class)	Potency (EC50) (AhR [7]; Table 1 summary class)	SMILES	activation of the AhR (AhR [1])	concentration at which activation of AhR was described (guinea pig AhR)	concentration at which activation of AhR was described (mouse AhR)	induction of CYP1A1 mRNA (CYP1A1 mRNA [4]; Caco-2 and MDA-MB-231 cells)	induction of CYP1A1 mRNA (CYP1A1 mRNA [4]; MDA-MB-468 cells)	AhR activation (AhR [5])	displacement of 3H-TCDD from binding at the murine AhR (murine AhR)	activation of AhR (AhR [7])
no induction	inactive	to a lesser extent								O=C(O)Cc1c[nH]c2ccccc12 [IAA, indole-3-acetate]	15 fold	2 mM	2 mM	≈ 5 fold	not			
no induction	inactive	to a lesser extent	no antagonistic effects	none	negligible activation	≈ 8 fold	98.3 ± 5.72 µM	low	low	O=C(O)CCc1c[nH]c2ccccc12 [IPA, indole-3-propionate]						no AhR activation		
										N[C@@H](Cc1c[nH]c2ccccc12)C(=O)O [Trp, tryptophan]							did not displace	did not activate
